Consider six molecules from patent US20080026996A1, “Selective Vpac2 Receptor Reptide Agonists” (ELI LILLY AND COMPANY, priority 2004, published 2008).

Where a SMILES comes first, the peptide text is derived from it. Where no end group is shown, it is not given here. [ ]: non-standard residue; d: D form. The star is where a group is joined. Orn = NCCC[C@H](N)C(=O)O; Hexanoyl = CCCCCC(=O)*; Aib = CC(C)(N)C(=O)O; Mpa = O=C(O)CCS

Data set [1] in a line: Rat serum stability studies (remaining active peptide by DiscoveRx cAMP on CHO-VPAC2 cells). The class given is in vitro ADME. As to the method: Store the aliquot with aprotinin at 4° C. Store the aliquot without aprotinin at 37° C. […] […] Incubate in room temperature for 30 minutes. Remove the supernatant. […] Incubate on the shaker (300 rpm) for 1 hour. Proceed as normal with the DiscoveRx kit. Include cAMP standards in column 12. Determine EC50 values from the cAMP assay data.

For data set [2], the target named is T1, human VPAC2 (Homo sapiens, UniProt P41587).
T1 construct: expressed in transfected cells
T1 sequence (P41587 24-438): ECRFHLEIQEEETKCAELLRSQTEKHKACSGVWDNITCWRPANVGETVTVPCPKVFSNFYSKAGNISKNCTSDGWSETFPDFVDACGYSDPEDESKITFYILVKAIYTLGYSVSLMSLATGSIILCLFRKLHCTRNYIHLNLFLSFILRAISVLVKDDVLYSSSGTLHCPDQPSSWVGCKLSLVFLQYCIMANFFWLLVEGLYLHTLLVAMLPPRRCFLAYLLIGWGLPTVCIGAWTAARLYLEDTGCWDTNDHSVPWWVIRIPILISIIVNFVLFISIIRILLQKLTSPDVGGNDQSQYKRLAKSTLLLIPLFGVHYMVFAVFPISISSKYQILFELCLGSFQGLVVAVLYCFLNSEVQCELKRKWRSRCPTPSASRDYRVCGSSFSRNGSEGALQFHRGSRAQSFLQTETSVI
Put plainly: Alpha screen cAMP in vitro potency, human VPAC2 receptor. Type of data set: cell-based. Particulars: cAMP generation; single result from two analyses performed in a single run; read-out: Human VPAC2 Receptor: Alpha Screen EC50. Put shortly: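 Stimulated cAMP accumulation is read by AlphaScreen after 60 min exposure of 50,000 non-enzymatically harvested cells to compound, followed by lysis with donor beads.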

For data set [3], the target named is T1, human VPAC2. Put plainly: Filter binding assay, membranes of stable VPAC2 cell line, 125I-labeled VIP tracer (Table 2). To be noted: read-out: Human VPAC2 Receptor Binding. Put shortly:
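Radioligand displacement was measured with 2.5 μg membrane protein per well and roughly 40000 cpm of iodinated tracer. After a 1-hour incubation, bound and free label were separated on BSA-blocked glass-fibre filters and quantified by scintillation.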

As a reminder, the EC50 is the concentration that produces a half-maximal response. As for `CCCCCC(=O)N[C@@H](Cc1c[nH]cn1)C(=O)N[C@@H](CO)C(=O)N[C@@H](CC(=O)O)C(=O)N[C@@H](C)C(=O)N[C@H](C(=O)N[C@@H](Cc1ccccc1)C(=O)N[C@H](C(=O)N[C@@H](CC(=O)O)C(=O)N[C@@H](CC(N)=O)C(=O)N[C@@H](Cc1ccc(O)cc1)C(=O)N[C@H](C(=O)N[C@@H](CCCN)C(=O)N[C@@H](CC(C)C)C(=O)N[C@@H](CCCNC(=N)N)C(=O)NC(C)(C)C(=O)N[C@@H](CCC(N)=O)C(=O)N[C@H](C(=O)N[C@@H](C)C(=O)N[C@@H](C)C(=O)NC(C)(C)C(=O)N[C@@H](CCCCN)C(=O)N[C@@H](Cc1ccc(O)cc1)C(=O)N[C@@H](CC(C)C)C(=O)N[C@@H](CCC(N)=O)C(=O)N[C@@H](CO)C(=O)N[C@H](C(=O)N[C@@H](CCCN)C(=O)N[C@@H](CC(N)=O)C(=O)N[C@@H](CCCN)C(=O)NCC(=O)NCC(=O)N1CCC[C@H]1C(=O)N[C@@H](CO)C(=O)N[C@@H](CO)C(=O)NCC(=O)N[C@@H](C)C(=O)N1CCC[C@H]1C(=O)N1CCC[C@H]1C(=O)N1CCC[C@H]1C(=O)N[C@@H](CO)C(=O)O)[C@@H](C)CC)[C@@H](C)CC)[C@@H](C)O)[C@@H](C)O)C(C)C` [Agonist P365] (Hexanoyl-HSDAVFTDNYT[Orn]LR[Aib]QIAA[Aib]KYLQSI[Orn]N[Orn]GGPSSGAPPPS-OH; C-terminus assumed), in data set [1], the “Rat Serum Stability (estimated purity in % after 18 hours)” value is reported as 91.13%. In addition, the EC50 on human VPAC2 [2] was determined as 0.13 nM.

Consider `CCCCCC(=O)N[C@@H](Cc1c[nH]cn1)C(=O)N[C@@H](CO)C(=O)N[C@@H](CC(=O)O)C(=O)N[C@@H](C)C(=O)N[C@H](C(=O)N[C@@H](Cc1ccccc1)C(=O)N[C@H](C(=O)N[C@@H](CC(=O)O)C(=O)N[C@@H](CC(N)=O)C(=O)N[C@@H](Cc1ccc(O)cc1)C(=O)N[C@H](C(=O)N[C@@H](C)C(=O)N[C@@H](CC(C)C)C(=O)N[C@@H](CCCNC(=N)N)C(=O)NC(C)(C)C(=O)N[C@@H](CCC(N)=O)C(=O)N[C@H](C(=O)N[C@@H](C)C(=O)N[C@@H](C)C(=O)NC(C)(C)C(=O)N[C@@H](CCCCN)C(=O)N[C@@H](Cc1ccc(O)cc1)C(=O)N[C@@H](CC(C)C)C(=O)N[C@@H](CCC(N)=O)C(=O)N[C@@H](CO)C(=O)N[C@H](C(=O)N[C@@H](CCCN)C(=O)N[C@@H](CC(N)=O)C(=O)N[C@@H](CCCN)C(=O)NCC(=O)NCC(=O)N1CCC[C@H]1C(=O)N[C@@H](CO)C(=O)N[C@@H](CO)C(=O)NCC(=O)N[C@@H](C)C(=O)N1CCC[C@H]1C(=O)N1CCC[C@H]1C(=O)N1CCC[C@H]1C(=O)N[C@@H](CO)C(=O)O)[C@@H](C)CC)C(C)C)[C@@H](C)O)[C@@H](C)O)C(C)C` [Agonist P366], for which the “Rat Serum Stability (estimated purity in % after 18 hours)” value in data set [1] is 92.00%. Besides, the EC50 at human VPAC2 [2] turned out to be 2.6 nM.

As for “Hexanoyl-HSDAVFTDNYTRLRKQVAAKKALQSIKNKRYGGPSSGAPPPS [Agonist P229]”, the “Rat Serum Stability (estimated purity in % after 18 hours)” value in data set [1] is <5.00%. The EC50 at human VPAC2 [2] was 2.6 nM.

In the case of “Hexanoyl-HSDAVFTDNYTRLRKQVAAKKYLQSIKNKRFGGPSSGAPPPS [Agonist P203]”, the “Rat Serum Stability (estimated purity in % after 18 hours)” value in data set [1] is reported as <0.09%. In addition, the 50% effective concentration (EC50) on human VPAC2 [2] was determined as 0.14 nM. On human VPAC2 [3], the IC50 came to 0.18 nM.

As for “Hexanoyl-HSDAVFTDNYTRLRKQVAAKKYTQSIKNKRYGGPSSGAPPPS [Agonist P232]”, the “Rat Serum Stability (estimated purity in % after 18 hours)” value in data set [1] was <5.00%. For the same molecule, at human VPAC2 [2], the EC50 was determined as 1.94 nM.

For the molecule “[Mpa]HSDAVFTDNYTRLLAKLALQKYLQSIKNKRYGGPSSGAPPPS [Agonist P205]”, in data set [1], the “Rat Serum Stability (estimated purity in % after 18 hours)” value is on record as 35.02%. Also, at human VPAC2 [2], the EC50 was determined as 1.14 nM.
